Test results: US11008572B2, “Methods and compositions for modulating splicing” (SKYHAWK THERAPEUTICS, INC., priority 2017, dated 2021)
Where two headings read alike, the source gives them in different places.

How the values were obtained:
[1] = test system: A-673 cells; experiment: Cell viability, crystal violet staining; format: cell-based; details: Homo sapiens
How it was run: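 Readout is absorbance at 570 nm of crystal violet, taken up in 0.1 M sodium citrate in 50% ethanol after staining with 0.5% dye in 25% methanol. Plates held 5×10^3 cells per well, and compounds were added one day after seeding for 72 hours. Data are relative to vehicle, mean±SE.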

[2] = test system: FOXM1^A2 mRNA and FOXM1^BC mRNA; experiment: Splicing assay (FOXM1), qPCR of isoform mRNAs; format: cell-based
How it was run: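 Cells (20,000/well) treated at plating with compound, 8-point 4-fold series from 10 μM, 0.2% DMSO, 24 h at 37° C. Isoform mRNAs quantified by RT-qPCR against plasmid standards, normalized to PPIA and DMSO control; isoform ratio computed per concentration.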

[3] = A673, cell viability, read-out: A-673 IC50 (nM) Cell viability
[4] = FoxM1 BC mRNA decrease (exon included), read-out: Splice IC50 (nM) FoxM1 BC mRNA decrease (exon included)
[5] = read-out: Splice EC50 (nM) FoxM1 A mRNA increase (exon excluded)
[6] = A673, cell viability, read-out: A-673 IC50 (nM), Cell viability
[7] = 24 h, FoxM1 BC mRNA decrease (exon included), 0.1-1000 nM, 24 hours, read-out: Splice IC50 (nM), FoxM1 BC mRNA decrease (exon included)
[8] = FoxM1 A mRNA increase (exon excluded), 0.1-1000 nM, 24 hours, read-out: Splice EC50 (nM), FoxM1 A mRNA increase (exon excluded)

Compound | IC50 [1, 3] | IC50 [2, 4] | EC50 [2, 5] | IC50 [1, 6] | IC50 [2, 7] | EC50 [2, 8] | further results
CN(c1ccc(-c2cc3oc(=O)n(C)c3cc2O)nn1)[C@@H]1C[C@H]2CC[C@@H](C1)N2 [compound 164, 6-(6-(((1R,3s,5S)-8-azabicyclo[3.2.1]octan-3-yl)(methyl)amino)pyridazin-3-yl)-5-hydroxy-3-methylbenzo[d]oxazol-2(3H)-one] | 251 to 500 nM | 10 to 100 nM | 10 to 100 nM |  |  |  | 
CN(c1ccc(-c2ccc(-c3cnn(C)c(=O)c3)cc2O)nn1)[C@H]1C[C@]2(C)CC[C@](C)(C1)N2 [compound 170, 5-(4-(6-(((1R,3s,5S)-1,5-dimethyl-8-azabicyclo[3.2.1]octan-3-yl)(methyl)amino)pyridazin-3-yl)-3-hydroxyphenyl)-2-methylpyridazin-3(2H)-one] | < 10 nM | < 10 nM | < 10 nM |  |  |  | 
CN(c1ccc(-c2ccc(-c3ccn(C)c(=O)n3)cc2O)nn1)[C@H]1C[C@]2(C)CC[C@](C)(C1)N2 [compound 180, 4-(4-(6-(((1R,3s,5S)-1,5-dimethyl-8-azabicyclo[3.2.1]octan-3-yl)(methyl)amino)pyridazin-3-yl)-3-hydroxyphenyl)-1-methylpyrimidin-2(1H)-one] | 101 to 250 nM | 10 to 100 nM | 10 to 100 nM |  |  |  | 
Cc1cc(-c2ccc(N(C)[C@H]3C[C@]4(C)CC[C@](C)(C3)N4)nn2)c(O)cc1-c1cn[nH]c1 [compound 182, 2-(6-(((1R,3s,5S)-1,5-dimethyl-8-azabicyclo[3.2.1]octan-3-yl)(methyl)amino)pyridazin-3-yl)-4-methyl-5-(1H-pyrazol-4-yl)phenol] | 10 to 100 nM | < 10 nM | < 10 nM |  |  |  | 
CN(c1ccc(-c2ccc(-c3cnn(C(F)(F)F)c3)cc2O)nn1)[C@H]1C[C@]2(C)CC[C@](C)(C1)N2 [compound 186, 2-(6-(((1R,3s,5S)-1,5-dimethyl-8-azabicyclo[3.2.1]octan-3-yl)(methyl)amino)pyridazin-3-yl)-5-(1-(trifluoromethyl)-1H-pyrazol-4-yl)phenol] | > 1000 nM | 101 to 250 nM | 10 to 100 nM |  |  |  | 
CN(c1ccc(-c2ccc(-c3ccn(CF)c(=O)c3)cc2O)nn1)[C@H]1C[C@]2(C)CC[C@](C)(C1)N2 [compound 187, 4-(4-(6-(((1R,3s,5S)-1,5-dimethyl-8-azabicyclo[3.2.1]octan-3-yl)(methyl)amino)pyridazin-3-yl)-3-hydroxyphenyl)-1-(fluoromethyl)pyridin-2(1H)-one] | 10 to 100 nM | < 10 nM | < 10 nM |  |  |  | 
CNC(=O)c1cc2cc(O)c(-c3ccc(N(C)[C@H]4C[C@]5(C)CC[C@](C)(C4)N5)nn3)cc2o1 [compound 188, 6-(6-(((1R,3s,5S)-1,5-dimethyl-8-azabicyclo[3.2.1]octan-3-yl)(methyl)amino)pyridazin-3-yl)-5-hydroxy-N-methylbenzofuran-2-carboxamide] | 10 to 100 nM | 10 to 100 nM | < 10 nM |  |  |  | 
COc1cc(-c2ccc(-c3ccc(N(C)[C@H]4C[C@]5(C)CC[C@](C)(C4)N5)nn3)c(O)c2)cnn1 [compound 191, 2-(6-(((1R,3s,5S)-1,5-dimethyl-8-azabicyclo[3.2.1]octan-3-yl)(methyl)amino)pyridazin-3-yl)-5-(6-methoxypyridazin-4-yl)phenol] | < 10 nM |  |  |  |  |  | IC50 ([1]; A673, read-out: A-673 cell viability (IC50)): < 1 nM; IC50 ([2]; Homo sapiens, A673, 24 h, A-673 cells, 24 hours, table does not say EC50 or IC50, read-out: FOXM1): < 1 nM; IC50 ([2]; Homo sapiens, A-375, 24 h, A-375 cells, 24 hours, table does not say EC50 or IC50, read-out: FOXM1): 1 to 10 nM; IC50 ([2]; Homo sapiens, K562, 24 h, K-562 cells, 24 hours, table does not say EC50 or IC50, read-out: FOXM1): 1 to 10 nM; IC50 ([2]; Homo sapiens, MDA-MB-468, 24 h, MDA-MB-468 cells, 24 hours, table does not say EC50 or IC50, read-out: FOXM1): 1 to 10 nM; IC50 ([2]; Homo sapiens, NCI-H358, 24 h, NCI-H358 cells, 24 hours, table does not say EC50 or IC50, read-out: FOXM1): 1 to 10 nM; IC50 ([2]; Homo sapiens, PANC-1, 24 h, PANC-1 cells, 24 hours, table does not say EC50 or IC50, read-out: FOXM1): 101 to 200 nM; IC50 ([2]; Homo sapiens, PC-3, 24 h, PC-3 cells, 24 hours, table does not say EC50 or IC50, read-out: FOXM1): 11 to 100 nM; IC50 ([2]; Homo sapiens, U-87 MG, 24 h, U-87MG cells, 24 hours, table does not say EC50 or IC50, read-out: FOXM1): 11 to 100 nM
CNC(=O)c1cc2cc(-c3ccc(N(C)[C@H]4C[C@]5(C)CC[C@](C)(C4)N5)nn3)c(O)cc2o1 [compound 192, 5-(6-(((1R,3s,5S)-1,5-dimethyl-8-azabicyclo[3.2.1]octan-3-yl)(methyl)amino)pyridazin-3-yl)-6-hydroxy-N-methylbenzofuran-2-carboxamide] | 10 to 100 nM | < 10 nM | < 10 nM |  |  |  | 
Cc1nnc(-c2ccc(-c3ccc(N(C)[C@@H]4C[C@H]5CC[C@@H](C4)N5)nn3)c(O)c2)o1 [compound 219, 2-(6-(((1R,3s,5S)-8-azabicyclo[3.2.1]octan-3-yl)(methyl)amino)pyridazin-3-yl)-5-(5-methyl-1,3,4-oxadiazol-2-yl)phenol] |  |  |  | > 1000 nM | 10 to 100 nM | 10 to 100 nM | 
CN(c1ccc(-c2ccc(-n3cccn3)cc2O)nn1)[C@@H]1C[C@H]2CC[C@@H](C1)N2 [compound 220, 2-(6-(((1R,3s,5S)-8-azabicyclo[3.2.1]octan-3-yl)(methyl)amino)pyridazin-3-yl)-5-(1H-pyrazol-1-yl)phenol] |  |  |  | 10 to 100 nM | 10 to 100 nM | < 10 nM | 
Cc1cnn(-c2ccc(-c3ccc(N(C)[C@@H]4C[C@H]5CC[C@@H](C4)N5)nn3)c(O)c2)c1 [compound 221, 2-(6-(((1R,3s,5S)-8-azabicyclo[3.2.1]octan-3-yl)(methyl)amino)pyridazin-3-yl)-5-(4-methyl-1H-pyrazol-1-yl)phenol] |  |  |  | 101 to 250 nM | 10 to 100 nM | 10 to 100 nM | 
Cc1ccn(-c2ccc(-c3ccc(N(C)[C@@H]4C[C@H]5CC[C@@H](C4)N5)nn3)c(O)c2)n1 [compound 222, 2-(6-(((1R,3s,5S)-8-azabicyclo[3.2.1]octan-3-yl)(methyl)amino)pyridazin-3-yl)-5-(3-methyl-1H-pyrazol-1-yl)phenol] |  |  |  | 10 to 100 nM | 10 to 100 nM | < 10 nM | 
CN(c1ccc(-c2ccc(-n3ccnn3)cc2O)nn1)[C@@H]1C[C@H]2CC[C@@H](C1)N2 [compound 224, 2-(6-(((1R,3s,5S)-8-azabicyclo[3.2.1]octan-3-yl)(methyl)amino)pyridazin-3-yl)-5-(1H-1,2,3-triazol-1-yl)phenol] |  |  |  | 101 to 250 nM | 10 to 100 nM | < 10 nM | 
Cc1cn(-c2ccc(-c3ccc(N(C)[C@@H]4C[C@H]5CC[C@@H](C4)N5)nn3)c(O)c2)nn1 [compound 225, 2-(6-(((1R,3s,5S)-8-azabicyclo[3.2.1]octan-3-yl)(methyl)amino)pyridazin-3-yl)-5-(4-methyl-1H-1,2,3-triazol-1-yl)phenol] |  |  |  | 10 to 100 nM | 10 to 100 nM | 10 to 100 nM | 
CN(c1ccc(-c2ccc(-c3c[nH]nn3)cc2O)nn1)[C@@H]1C[C@H]2CC[C@@H](C1)N2 [compound 226, 2-(6-(((1R,3s,5S)-8-azabicyclo[3.2.1]octan-3-yl)(methyl)amino)pyridazin-3-yl)-5-(1H-1,2,3-triazol-4-yl)phenol] |  |  |  | 101 to 250 nM | 10 to 100 nM | 10 to 100 nM | 
CN(c1ccc(-c2ccc(-c3nnn[nH]3)cc2O)nn1)[C@@H]1C[C@H]2CC[C@@H](C1)N2 [compound 227, 2-(6-(((1R,3s,5S)-8-azabicyclo[3.2.1]octan-3-yl)(methyl)amino)pyridazin-3-yl)-5-(1H-tetrazol-5-yl)phenol] |  |  |  | > 1000 nM | > 1000 nM | > 1000 nM | 
Cc1cc(-c2ccc(-c3ccc(N(C)[C@@H]4C[C@H]5CC[C@@H](C4)N5)nn3)c(O)c2)on1 [compound 229, 2-(6-(((1R,3s,5S)-8-azabicyclo[3.2.1]octan-3-yl)(methyl)amino)pyridazin-3-yl)-5-(3-methylisoxazol-5-yl)phenol] |  |  |  | > 1000 nM | > 1000 nM | > 1000 nM | 
